Values joined by “and” are separate entries in the source; they are usually repeats but may differ in a detail not shown here. Equal entries are not always repeated. Where two headings read alike, the source gives them in different places.
Columns and labels:
ROCK1 = ROCK1 (Homo sapiens, UniProt Q13464); experiment: KINOMEscan competition binding; set-up: purchased Eurofins DiscoverX (KINOMEscan)
Experimental: (§1) Two distinct platforms were used for initial screening with 50 µM DOH vs. DMSO vehicle. The first was the Eurofins DiscoverX KINOMEscan® (Freemont, CA USA) profiling platform, which employed a proprietary active site-directed competition binding assay to quantitatively measure interactions between a test compound (i.e., DOH) and 468 human protein kinases and disease relevant mutant variants either directly (sterically) or indirectly (allosterically) to prevent a kinase binding to its immobilized substrate (ligand). The top 8 hits were subjected to secondary screening verification by DOH concentration-titration for dissociation constant (Kd). For ROCK1 and ROCK2, DA was chosen for Kd titration as well, because it is ~ 10 × higher than D in peripheral circulation due to its resistance to hydrolysis by carboxyesterase-2 (Fig. 1C).

CYP2C19 and 3A4 = conditions: cited from earlier work
carboxyesterase-2 (CES2) = conditions: cited from earlier work
[1] = system: pentobarbital-induced sleeping behaviors; set-up: method as in PMID 28066138; conditions: cited from earlier work
[2] = system: methicillin-resistant Staphylococcus aureus (MRSA) sepsis; set-up: method as in PMID 34681611; conditions: ip every other day 0.4, 2 and 10 mg/kg pre-treatment; cited from earlier work
sleep architectures = system: sleep architectures; set-up: method as in PMID 28066138; conditions: DA 50 mg/kg, po; cited from earlier work
TYK2 = molecular target: T1, TYK2 (Homo sapiens, UniProt P29597); experiment: Reaction Biology kinase activity inhibition; assay type: biochemical; conditions: initial screening
T1 construct: purchased Reaction Biology
Source text: (§2) The second screening was the Reaction Biology® (Malvern, PA) kinase activity inhibition tests, which screened for more than 600 protein kinases and lipid kinases, using miniaturized radioisotope-based assay platform with γ-^33P-ATP, followed by confirmation with IC50 kinase profiling service with 5 concentrations of test compound (i.e., DOH and DA) with curve fitting.

PKCzeta = molecular target: T2, PKCzeta (Homo sapiens, UniProt Q05513); experiment: Reaction Biology kinase activity inhibition; assay type: biochemical; conditions: initial screening
T2 construct: purchased Reaction Biology
Source text: as §2

CLK4 = molecular target: T3, CLK4 (Homo sapiens, UniProt Q9HAZ1); experiment: Reaction Biology kinase activity inhibition; assay type: biochemical; conditions: initial screening
T3 construct: purchased Reaction Biology
Source text: as §2

CDK7/cyclin H = molecular target: T4, CDK7/cyclin H (Homo sapiens, UniProt P50613); experiment: Reaction Biology kinase activity inhibition; assay type: biochemical; conditions: initial screening
T4 construct: purchased Reaction Biology
Source text: as §2

[3] = cited from earlier work
CDK9 = CDK9 (Homo sapiens, UniProt P50750); experiment: Reaction Biology kinase activity inhibition; assay type: biochemical; set-up: purchased Reaction Biology (Malvern, PA); conditions: activity screening, DOH at 50 μM
Source text: as §2

[4] = system: acetic acid-induced writhing; set-up: method as in PMID 19557373; conditions: cited from earlier work
[5] = set-up: method as in PMID 27080944, PMID 23364885, PMID 29121805; conditions: oral gavage dosing of AGN or D/DA; cited from earlier work
LKB1 (STK11) = molecular target: T5, LKB1 (STK11) (Homo sapiens, UniProt Q15831); experiment: KINOMEscan competition binding
T5 construct: purchased Eurofins DiscoverX (KINOMEscan)
Experimental: as §1

PIK3CG = molecular target: T6, PIK3CG (Homo sapiens, UniProt P48736); experiment: KINOMEscan competition binding; conditions: initial screening, DOH 50 µM; read-out: Substrate bound % Control
T6 construct: purchased Eurofins DiscoverX (KINOMEscan)
Experimental: as §1

[6] = molecular target: T7, JAK3(JH1domain-catalytic) (Homo sapiens, UniProt P52333); experiment: KINOMEscan competition binding; conditions: initial screening, DOH 50 µM; read-out: Substrate bound % Control
T7 construct: JAK3(JH1domain-catalytic); purchased Eurofins DiscoverX (KINOMEscan)
Experimental: as §1

ERK4 (MAPK4) = molecular target: T8, ERK4 (MAPK4) (Homo sapiens, UniProt P31152); experiment: KINOMEscan competition binding
T8 construct: purchased Eurofins DiscoverX (KINOMEscan)
Experimental: as §1

PIP5K1A = molecular target: T9, PIP5K1A (Homo sapiens, UniProt Q99755); experiment: KINOMEscan competition binding; conditions: initial screening, DOH 50 µM; read-out: Substrate bound % Control
T9 construct: purchased Eurofins DiscoverX (KINOMEscan)
Experimental: as §1

[7] = molecular target: T10, JAK2(JH1domain-catalytic) (Homo sapiens, UniProt O60674); experiment: KINOMEscan competition binding; conditions: initial screening, DOH 50 µM; read-out: Substrate bound % Control
T10 construct: JAK2(JH1domain-catalytic); purchased Eurofins DiscoverX (KINOMEscan)
Experimental: as §1

YSK4 (MAP3K19) = molecular target: T11, YSK4 (MAP3K19) (Homo sapiens, UniProt Q56UN5); experiment: KINOMEscan competition binding; conditions: initial screening, DOH 50 µM; read-out: Substrate bound % Control
T11 construct: purchased Eurofins DiscoverX (KINOMEscan)
Experimental: as §1

GRK4 = molecular target: T12, GRK4 (Homo sapiens, UniProt P32298); experiment: KINOMEscan competition binding; conditions: initial screening, DOH 50 µM; read-out: Substrate bound % Control
T12 construct: purchased Eurofins DiscoverX (KINOMEscan)
Experimental: as §1

PIK3C2G = molecular target: T13, PIK3C2G (Homo sapiens, UniProt O75747); experiment: KINOMEscan competition binding; conditions: initial screening, DOH 50 µM; read-out: Substrate bound % Control
T13 construct: purchased Eurofins DiscoverX (KINOMEscan)
Experimental: as §1

RIOK1 = molecular target: T14, RIOK1 (Homo sapiens, UniProt Q9BRS2); experiment: KINOMEscan competition binding; conditions: initial screening, DOH 50 µM; read-out: Substrate bound % Control
T14 construct: purchased Eurofins DiscoverX (KINOMEscan)
Experimental: as §1

CDC2L1 (CDK11B) = molecular target: T15, CDC2L1 (CDK11B) (Homo sapiens, UniProt P21127); experiment: KINOMEscan competition binding
T15 construct: purchased Eurofins DiscoverX (KINOMEscan)
Experimental: as §1

DYRK1B = molecular target: T16, DYRK1B (Homo sapiens, UniProt Q9Y463); experiment: KINOMEscan competition binding; conditions: initial screening, DOH 50 µM; read-out: Substrate bound % Control
T16 construct: purchased Eurofins DiscoverX (KINOMEscan)
Experimental: as §1

BIKE (BMP2K) = molecular target: T17, BIKE (BMP2K) (Homo sapiens, UniProt Q9NSY1); experiment: KINOMEscan competition binding; conditions: initial screening, DOH 50 µM; read-out: Substrate bound % Control
T17 construct: purchased Eurofins DiscoverX (KINOMEscan)
Experimental: as §1

SRPK3 = molecular target: T18, SRPK3 (Homo sapiens, UniProt Q9UPE1); experiment: KINOMEscan competition binding; conditions: initial screening, DOH 50 µM; read-out: Substrate bound % Control
T18 construct: purchased Eurofins DiscoverX (KINOMEscan)
Experimental: as §1

[8] = Eurofins DiscoveRx, Table 1, read-out: ROCK1 Kd
[9] = validation Kd titration, 0.003 to 50 µM, two values per cell, read-out: Kd
[10] = DOH (50 µM), Data 1 and Data 2, read-out: % Enzyme Activity (relative to DMSO controls)
[11] = read-out: Substrate bound % Control
[12] = validation Kd titration, 0.003 to 50 µM

T4 sequence (P50613 whole entry): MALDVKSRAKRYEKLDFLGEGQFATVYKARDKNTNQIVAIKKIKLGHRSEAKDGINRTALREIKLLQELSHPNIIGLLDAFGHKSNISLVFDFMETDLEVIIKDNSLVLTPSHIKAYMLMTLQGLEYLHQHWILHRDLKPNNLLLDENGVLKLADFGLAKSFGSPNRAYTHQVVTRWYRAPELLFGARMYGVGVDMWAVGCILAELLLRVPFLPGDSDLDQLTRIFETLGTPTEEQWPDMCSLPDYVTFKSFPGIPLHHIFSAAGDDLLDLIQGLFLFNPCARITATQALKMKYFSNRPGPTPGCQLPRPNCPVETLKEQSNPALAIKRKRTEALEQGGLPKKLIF
T4 sequence (P51946 whole entry partner): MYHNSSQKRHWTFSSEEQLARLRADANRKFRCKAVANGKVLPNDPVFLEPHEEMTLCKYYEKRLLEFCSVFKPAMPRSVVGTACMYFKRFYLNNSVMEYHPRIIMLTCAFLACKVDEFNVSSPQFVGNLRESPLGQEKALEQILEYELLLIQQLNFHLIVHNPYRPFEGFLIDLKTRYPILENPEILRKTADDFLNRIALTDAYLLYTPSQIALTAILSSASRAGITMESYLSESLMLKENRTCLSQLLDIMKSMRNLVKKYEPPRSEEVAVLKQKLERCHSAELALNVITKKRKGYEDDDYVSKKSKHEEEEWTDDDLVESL
T4 sequence (P51948 whole entry partner): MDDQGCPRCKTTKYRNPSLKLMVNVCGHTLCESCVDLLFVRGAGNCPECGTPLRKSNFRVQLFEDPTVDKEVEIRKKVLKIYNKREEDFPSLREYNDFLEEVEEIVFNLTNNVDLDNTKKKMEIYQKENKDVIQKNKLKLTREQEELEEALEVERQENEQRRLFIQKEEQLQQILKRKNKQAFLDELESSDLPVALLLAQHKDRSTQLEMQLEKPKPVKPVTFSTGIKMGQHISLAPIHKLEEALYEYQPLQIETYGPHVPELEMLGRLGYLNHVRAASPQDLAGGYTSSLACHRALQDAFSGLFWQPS
T3 sequence (Q9HAZ1 whole entry): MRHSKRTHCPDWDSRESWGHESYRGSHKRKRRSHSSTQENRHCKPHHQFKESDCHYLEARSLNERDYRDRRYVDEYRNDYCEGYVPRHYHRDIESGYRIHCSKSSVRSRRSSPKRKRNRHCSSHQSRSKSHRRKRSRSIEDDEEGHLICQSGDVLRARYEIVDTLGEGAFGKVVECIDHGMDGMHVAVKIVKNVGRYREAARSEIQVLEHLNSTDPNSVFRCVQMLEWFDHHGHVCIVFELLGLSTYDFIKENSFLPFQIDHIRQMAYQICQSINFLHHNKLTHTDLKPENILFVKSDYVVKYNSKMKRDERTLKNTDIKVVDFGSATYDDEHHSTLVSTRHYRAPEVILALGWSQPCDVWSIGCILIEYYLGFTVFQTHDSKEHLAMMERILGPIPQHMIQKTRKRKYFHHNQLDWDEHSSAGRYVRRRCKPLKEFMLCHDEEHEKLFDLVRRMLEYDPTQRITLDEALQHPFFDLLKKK
ROCK1, sequence (Q13464 whole entry): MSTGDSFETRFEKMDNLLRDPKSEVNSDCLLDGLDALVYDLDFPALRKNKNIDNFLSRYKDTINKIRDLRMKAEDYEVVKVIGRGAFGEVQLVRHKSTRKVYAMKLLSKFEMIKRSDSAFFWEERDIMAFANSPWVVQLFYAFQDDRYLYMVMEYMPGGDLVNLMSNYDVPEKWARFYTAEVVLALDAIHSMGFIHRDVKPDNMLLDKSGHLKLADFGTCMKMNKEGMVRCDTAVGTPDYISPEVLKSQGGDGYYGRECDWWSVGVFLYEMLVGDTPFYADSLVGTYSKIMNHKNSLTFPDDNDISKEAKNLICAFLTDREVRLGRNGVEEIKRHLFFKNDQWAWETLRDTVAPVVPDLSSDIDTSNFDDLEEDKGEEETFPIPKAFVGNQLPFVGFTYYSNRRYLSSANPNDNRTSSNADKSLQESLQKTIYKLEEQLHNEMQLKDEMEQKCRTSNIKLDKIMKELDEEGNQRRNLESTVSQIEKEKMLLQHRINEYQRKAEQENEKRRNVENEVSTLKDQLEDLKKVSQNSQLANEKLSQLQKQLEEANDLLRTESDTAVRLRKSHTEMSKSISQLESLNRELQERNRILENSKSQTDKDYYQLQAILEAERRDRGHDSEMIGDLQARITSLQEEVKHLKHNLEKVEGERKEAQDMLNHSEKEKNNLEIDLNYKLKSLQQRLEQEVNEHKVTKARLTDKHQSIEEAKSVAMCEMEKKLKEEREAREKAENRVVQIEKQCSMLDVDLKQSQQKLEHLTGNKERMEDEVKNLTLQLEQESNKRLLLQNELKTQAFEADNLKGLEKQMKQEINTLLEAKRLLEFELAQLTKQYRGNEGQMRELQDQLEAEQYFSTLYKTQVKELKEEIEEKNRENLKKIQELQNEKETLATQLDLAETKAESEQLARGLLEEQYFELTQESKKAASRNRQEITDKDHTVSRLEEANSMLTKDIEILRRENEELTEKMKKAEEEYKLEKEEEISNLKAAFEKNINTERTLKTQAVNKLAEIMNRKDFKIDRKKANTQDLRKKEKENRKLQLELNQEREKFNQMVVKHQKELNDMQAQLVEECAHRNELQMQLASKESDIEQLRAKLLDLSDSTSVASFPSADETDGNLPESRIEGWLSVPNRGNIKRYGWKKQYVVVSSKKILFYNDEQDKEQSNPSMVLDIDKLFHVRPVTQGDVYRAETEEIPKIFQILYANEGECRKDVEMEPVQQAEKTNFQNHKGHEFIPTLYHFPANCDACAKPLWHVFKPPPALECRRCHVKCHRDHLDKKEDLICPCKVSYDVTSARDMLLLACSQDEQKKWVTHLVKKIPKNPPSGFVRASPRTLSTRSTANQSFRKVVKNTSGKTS
T1 sequence (P29597 whole entry): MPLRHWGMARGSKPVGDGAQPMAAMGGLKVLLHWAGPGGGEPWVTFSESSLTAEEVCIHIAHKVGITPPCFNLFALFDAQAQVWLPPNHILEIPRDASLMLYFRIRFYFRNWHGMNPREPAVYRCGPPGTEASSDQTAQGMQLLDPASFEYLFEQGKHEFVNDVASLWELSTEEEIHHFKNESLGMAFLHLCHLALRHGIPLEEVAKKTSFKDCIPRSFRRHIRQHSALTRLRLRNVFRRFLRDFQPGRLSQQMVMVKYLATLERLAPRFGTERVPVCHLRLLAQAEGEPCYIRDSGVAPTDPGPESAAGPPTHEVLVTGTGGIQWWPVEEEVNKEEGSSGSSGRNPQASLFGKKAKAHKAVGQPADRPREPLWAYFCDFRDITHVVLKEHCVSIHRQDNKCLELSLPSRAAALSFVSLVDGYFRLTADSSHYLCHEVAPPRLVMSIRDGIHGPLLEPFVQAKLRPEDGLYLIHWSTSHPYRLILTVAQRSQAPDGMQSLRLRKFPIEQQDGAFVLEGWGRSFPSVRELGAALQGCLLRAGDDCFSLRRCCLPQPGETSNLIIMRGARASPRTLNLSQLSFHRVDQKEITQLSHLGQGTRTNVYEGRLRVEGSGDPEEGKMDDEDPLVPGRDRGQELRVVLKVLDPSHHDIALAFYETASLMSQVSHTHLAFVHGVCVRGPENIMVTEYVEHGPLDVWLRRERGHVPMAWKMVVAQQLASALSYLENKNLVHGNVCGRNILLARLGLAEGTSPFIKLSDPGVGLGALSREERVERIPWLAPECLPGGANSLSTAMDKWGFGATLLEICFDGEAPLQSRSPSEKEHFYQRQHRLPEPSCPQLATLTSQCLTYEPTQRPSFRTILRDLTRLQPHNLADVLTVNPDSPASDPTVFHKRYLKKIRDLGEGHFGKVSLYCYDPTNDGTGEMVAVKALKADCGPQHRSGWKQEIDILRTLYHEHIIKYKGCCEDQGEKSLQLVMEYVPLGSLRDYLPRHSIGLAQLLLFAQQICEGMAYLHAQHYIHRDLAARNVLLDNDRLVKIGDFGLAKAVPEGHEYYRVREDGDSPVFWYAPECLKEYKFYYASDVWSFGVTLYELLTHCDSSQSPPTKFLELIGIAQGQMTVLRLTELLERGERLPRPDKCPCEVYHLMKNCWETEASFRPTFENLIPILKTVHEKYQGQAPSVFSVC
T15 sequence (P21127 whole entry): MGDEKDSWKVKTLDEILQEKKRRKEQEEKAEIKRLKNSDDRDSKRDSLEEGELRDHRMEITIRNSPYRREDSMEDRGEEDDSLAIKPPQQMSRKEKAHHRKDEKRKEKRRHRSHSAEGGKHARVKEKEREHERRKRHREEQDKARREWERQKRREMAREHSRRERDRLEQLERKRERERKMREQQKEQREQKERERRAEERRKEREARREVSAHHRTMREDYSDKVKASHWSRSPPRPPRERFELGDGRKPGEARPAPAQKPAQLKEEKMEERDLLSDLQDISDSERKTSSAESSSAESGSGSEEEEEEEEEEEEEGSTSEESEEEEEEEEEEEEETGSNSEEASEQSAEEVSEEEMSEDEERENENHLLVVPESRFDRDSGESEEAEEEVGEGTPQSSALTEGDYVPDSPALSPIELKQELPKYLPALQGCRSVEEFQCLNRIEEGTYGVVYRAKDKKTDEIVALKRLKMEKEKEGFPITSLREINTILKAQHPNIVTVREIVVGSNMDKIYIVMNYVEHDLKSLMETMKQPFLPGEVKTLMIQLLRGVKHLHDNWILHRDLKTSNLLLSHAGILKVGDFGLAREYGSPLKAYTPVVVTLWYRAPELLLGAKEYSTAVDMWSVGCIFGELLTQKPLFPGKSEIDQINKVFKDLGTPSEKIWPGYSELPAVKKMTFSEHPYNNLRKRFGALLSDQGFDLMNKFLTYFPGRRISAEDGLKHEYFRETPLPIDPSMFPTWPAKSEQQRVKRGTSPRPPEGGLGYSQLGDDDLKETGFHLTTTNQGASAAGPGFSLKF

In the case of C/C=C(/C)C(=O)O[C@H]1Cc2cc3ccc(=O)oc3cc2OC1(C)C [DA, decursinol angelate], the Kd (ROCK1; [8]) is given as 2.1 µM, the Kd (ROCK1; [9]) is given as 1.9 µM and 2.3 µM and the “Cyp isoforms for metabolism to DOH” value (CYP2C19 and 3A4) is given as “major human isoforms”. For the same compound, the “CES2 contribution to metabolism to DOH” value (carboxyesterase-2 (CES2)) was “not”, the “sleeping time by pentobarbital (42 mg/kg)” value ([1]; dose-dependent) was “prolonged sleeping time” and the spontaneous locomotor activity ([1]; oral DA 10, 25 and 50 mg/kg) was “markedly suppressed spontaneous locomotor activity”. For the same compound, the “mouse mortality and bacteremia” value [2] was “dose-dependent decrease of mouse mortality” and the “total sleep time (EEG)” value (sleep architectures) was “increased total sleep time”.
For CC1(C)Oc2cc3oc(=O)ccc3cc2C[C@@H]1O [DOH, decursinol], the inhibition at 50 µM (TYK2; DOH 50 µM) was 32.4%, the “% Enzyme Activity (relative to DMSO controls)” value (TYK2; DOH (50 µM), Data 1 and Data 2) was 62.8% and the remaining activity at 50 µM (TYK2; [10]) was 72.3%. For the same compound, the inhibition at 50 µM (PKCzeta; DOH 50 µM) was 27.1%, the remaining activity at 50 µM (PKCzeta; [10]) was 72.9% and the inhibition at 50 µM (CLK4; DOH 50 µM) was 25.7%. The “% Enzyme Activity (relative to DMSO controls)” value (CLK4; DOH (50 µM), Data 1 and Data 2) was 74.0%, the remaining activity at 50 µM (CLK4; [10]) was 74.8% and the inhibition at 50 µM (CDK7/cyclin H; DOH 50 µM) was 25.7%. For the same compound, the “% Enzyme Activity (relative to DMSO controls)” value (CDK7/cyclin H; DOH (50 µM), Data 1 and Data 2) was 73.9%, the remaining activity at 50 µM (CDK7/cyclin H; [10]) was 74.8% and the Kd (ROCK1; [8]) was 7.5 µM. For the same compound, the remaining binding at 50 µM (ROCK1; initial screening, DOH 50 µM, read-out: Substrate bound % Control) was 12%, the Kd (ROCK1; [9]) was 7.3 µM and 7.6 µM and the AUCDOH/AUCtotal ([3]; conversion of D and DA to DOH) was 98.7%. For the same compound, the Cmax ([3]; read-out: mean peak concentration Cmax, 10 men and 10 women, 800 mg INM176 AGN oral) was 2480 nM, the “inhibition of kinase activity” value (CDK9) was “no inhibition” and the analgesic effect ([4]; oral 50 mg/kg) was “efficacious”. The analgesic effect ([4]; oral 25 or 10 mg/kg) was “not at 25 or 10 mg/kg”, the “DOH level achievable in the blood” value [5] was “double digit micromolar” and the remaining binding at 50 µM (LKB1 (STK11); [11]) was 7.6%. The Kd (LKB1 (STK11); [12]) was greater than 50 µM, the remaining binding at 50 µM (PIK3CG) was 46% and the remaining binding at 50 µM [6] was 45%. It also gave a remaining binding at 50 µM (ERK4 (MAPK4); [11]) of 3.3%, a Kd (ERK4 (MAPK4); [12]) greater than 50 µM and a remaining binding at 50 µM (PIP5K1A) of 47%. It also gave a remaining binding at 50 µM [7] of 49%, a remaining binding at 50 µM (YSK4 (MAP3K19)) of 34% and a remaining binding at 50 µM (GRK4) of 47%. For the same compound, the remaining binding at 50 µM (PIK3C2G) was 32%, the remaining binding at 50 µM (RIOK1) was 50% and the remaining binding at 50 µM (CDC2L1 (CDK11B); [11]) was 19%. The Kd (CDC2L1 (CDK11B); [12]) was greater than 50 µM, the remaining binding at 50 µM (DYRK1B) was 28% and the remaining binding at 50 µM (BIKE (BMP2K)) was 45%. The remaining binding at 50 µM (SRPK3) was 45%.
